Like-named read-outs stand apart in the source and are kept apart here.
Legend:
[1] = DPPH radical scavenging assay
Protocol: The IC50 values for DPPH were calculated from the plot of the scavenging effect against the compound concentration.
The compounds’ capacities to scavenge the stable radical 1,1 diphenyl-2-picrylhydrazyl (DPPH) formed in solution by donation of a hydrogen atom or an electron was investigated according to the method described by Bersuder and coworkers. Due to the fact that the initial blue/purple solution of diphenyl picrylhydrazine changes to yellow in the presence of compounds with a capacity to scavenge DPPH free radicals, this reaction is used as a measure of a compound’s ability to scavenge any free radical. Briefly, a 0.5 mL volume of DPPH ethanolic solution was mixed with an equal volume of each sample concentration (0.03 to 1 mg/mL), shaken strongly and incubated at room temperature for 1 h in darkness. The absorbance of the residual DPPH radicals was measured at 519 nm and compared to that of the control (without the tested compound). DPPH radical scavenging was calculated using the following formula: Scavenging effect (%) = (1 − Acompound/AControl) × 100, where Acompound and Acontrol are the absorbances of the tested compound and of the control, respectively. A plot of the scavenging effect (%) versus the sample concentration was also performed to determine the compound concentration providing 50% inhibition (IC50).

[2] = Reducing power assay (FRAC, Fe3+ to Fe2+); settings: 0-1 mg/mL, absorbance 700 nm
Protocol: Secondly, FRAC was determined over the concentration range of 0.0−1 mg/mL via monitoring Fe^3+−Fe^2+ transformation in the presence of the studied compounds and the reference antioxidant BHT to estimate the values of efficient concentration (EC50), expressed in mM.
The reducing power of the studied compounds was assessed according to Oyaizu’s method. Briefly, different concentrations (ranging from 0 to 1 mg/mL) of each tested compound were first mixed with 1 mL of 0.2 M sodium phosphate buffer (pH 6.6) and 1 mL of 1% potassium ferricyanide (K3Fe(CN)6) and incubated at 50 °C for 20 min. After the addition of 1.25 mL of 20% trichloroacetic acid (TCA), the mixture was centrifuged for 10 min at 3000 rpm and the upper layer solution was then mixed with 0.5 mL of 0.1% fresh ferric chloride and an equal volume of deionized water. Finally, the absorption of the resulting mixture was measured at 700 nm using a UV spectrophotometer against distilled water as the blank, while butylated hydroxytoluene (BHT) was used as a positive control. The sample ferric reducing power capability was indicated by increased absorbance.

B. cereus (ATCC 14579) [3] = assay: Antibacterial agar diffusion method (inhibition zone); type: cell-based
Protocol: (§1) The results for the in vitro antibacterial properties of the synthesized compounds against five Gram-positive and four Gram-negative human-pathogenic strains, which were assessed by both the agar diffusion method (based on inhibition zone (IZ)) and the broth dilution bioassay (for the determination of the half-maximal inhibitory concentration (IC50) values), using ampicillin as the reference antibiotic drug, are shown in Table 2 and Table 3.
(§2) The antibacterial activity of all synthesized compounds was evaluated against the Gram-negative strains E. coli (ATCC 25966), K. pneumonia (ATCC 700603), P. aeruginosa (ATCC 27853) and S. enteric (ATCC 43972) and against the Gram-positive strains B. cereus (ATCC 14579), B. subtilis (ATCC 6633), E. faecalis (ATCC 29122), S. aureus (ATCC 25923) and S. epidermidis (ATCC 14990), using the agar diffusion method through measuring the appearance of the inhibition zone on the surface of the top agar, as reported by Berghe and Vlietinck. Ampicillin (10 µg/well) was used as the positive reference standard. Bacterial viability was also investigated by determining the colony-forming ability (CFU) of bacteria incubated at different time intervals without or with appropriate amounts of the compound, which were mixed with 2 ×10^7 CFU/mL in sterile BHI and incubated under shaking for 60 min at 37 °C. Samples were serially diluted into sterile BHI, streaked onto media agar plates and incubated for 24 h at 37 °C. The antibacterial potency of the tested compounds was expressed as the residual number of CFUs with reference to the initial inoculums. The results presented as the half-maximal (50 %) inhibitory concentration (IC50) values are the means of three different measurements.

B. subtilis (ATCC 6633) [4] = assay: as above; type: cell-based
Protocol: as §1, §2

E. coli (ATCC 25966) [5] = assay: as above; type: cell-based; settings: E. coil (ATCC 25966)
Protocol: as §1, §2

E. faecalis (ATCC 29122) [6] = assay: as above; type: cell-based
Protocol: as §1, §2

[7] = tested on: K. pneumonia (ATCC 700603); assay: as above; type: cell-based
Protocol: as §1, §2

[8] = tested on: P. aeruginosa (ATCC 27853); assay: as above; type: cell-based
Protocol: as §1, §2

S. aureus (ATCC 25923) [9] = assay: as above; type: cell-based
Protocol: as §1, §2

S. enteric (ATCC 43972) [10] = assay: as above; type: cell-based
Protocol: as §1, §2

[11] = tested on: S. epidermidis (ATCC 14990); assay: as above; type: cell-based
Protocol: as §1, §2

B. cereus (ATCC 14579) [12] = assay: Antibacterial viability (CFU) assay, IC50; type: cell-based; settings: Bacillus cereus, ATCC14579
Protocol: as §1, §2

B. subtilis (ATCC 6633) [13] = assay: Antibacterial viability (CFU) assay, IC50; type: cell-based; settings: Bacillus subtilis, ATCC6633, B. subtilis (ATCC 6633)
Protocol: as §1, §2

E. coli (ATCC 25966) [14] = assay: Antibacterial viability (CFU) assay, IC50; type: cell-based; settings: Escherichia coli, ATCC25966; E. coil (ATCC 25966)
Protocol: as §1, §2

E. faecalis (ATCC 29122) [15] = assay: Antibacterial viability (CFU) assay, IC50; type: cell-based; settings: Enterococcus faecalis, ATCC29122
Protocol: as §1, §2

[16] = tested on: K. pneumonia (ATCC 700603); assay: Antibacterial viability (CFU) assay, IC50; type: cell-based; settings: Klebsiella pneumoniae, ATCC700603
Protocol: as §1, §2

[17] = tested on: P. aeruginosa (ATCC 27853); assay: Antibacterial viability (CFU) assay, IC50; type: cell-based; settings: Pseudomonas aeruginosa, ATCC27853
Protocol: as §1, §2

S. aureus (ATCC 25923) [18] = assay: Antibacterial viability (CFU) assay, IC50; type: cell-based; settings: Staphylococcus aureus, ATCC25923
Protocol: as §1, §2

S. enteric (ATCC 43972) [19] = assay: Antibacterial viability (CFU) assay, IC50; type: cell-based; settings: read-out: IC50
Protocol: as §1, §2

[20] = tested on: S. epidermidis (ATCC 14990); assay: Antibacterial viability (CFU) assay, IC50; type: cell-based; settings: Staphylococcus epidermidis, ATCC14990
Protocol: as §1, §2

HCT-116 cells = assay: Cell viability (cytotoxicity, LDH release) assay; type: cell-based; settings: Homo sapiens, 24 h
Protocol: The synthesized compounds were also examined at four concentrations (10, 25, 50 and 100 µg/mL) for their cytotoxic effects on human colorectal cancer HCT-116 cells after their incubation together for 24 h.
Cytotoxic potency was examined for a human colon cancer cell line HCT-116 (American Type Culture Collection; Manassas, VA, USA) using various amounts of each compound (10, 25, 50 and 100 µg). Samples were diluted in Dulbecco’s Modified Eagle’s Medium, consisting of 10% Fetal Bovine Serum, and added to cells grown and cultured for 24 h in a 5% CO2-humidified incubator at 37 °C. Then, the activity of lactate dehydrogenase released from damaged cells was determined in the collected supernatant aliquots using an ELISA endpoint assay (Benchmark Plus, Bio-Rad, Hercules, CA, USA). As positive and negative controls, respectively, 0.1% Triton X-100 in the assay medium and the assay medium only were used. Cell viability, shown as mean values ± SDs (n = 3), was expressed as a relative percentage of the OD values determined at 600 nm in compound-treated cells and the control.

**Q.** With `COC(=O)C1=C(C)OC(N)=C(C#N)C1c1ccccc1C(=O)O` (stereo not shown) [4a, 6-Amino-4-(2-carboxy-phenyl)-5-cyano-2-methyl-4H-pyran-3-carboxylic acid methyl ester] as the compound, how does the IC50 ([1]; 0.03 to 1 mg/mL, 1 h, mean ± SD, triplicate, read-out: IC50 (mM) for DPPH Scavenging Potency) read?
**A.** Its IC50 is 2.29 ± 0.134 mM.

**Q.** What about the “DPPH Radical Scavenging Effenciency (%) at 1 mg/mL” value ([1]; at 1 mg/mL) of the same compound?
**A.** The value was 24.15 ± 1.62%.

**Q.** And the EC50 [2]?
**A.** Its EC50 is 827 ± 45 µM.

**Q.** And the “IZ (mm)” value (B. cereus (ATCC 14579) [3])?
**A.** Its value is 7.50 ± 0.71 mm.

**Q.** What about the “IZ (mm)” value (B. subtilis (ATCC 6633) [4]) of the same compound?
**A.** The value was 5.20 ± 0.28 mm.

**Q.** What about the “IZ (mm)” value (E. coli (ATCC 25966) [5]) of the same compound?
**A.** Its value is 4.5 ± 0.71 mm.

**Q.** What about the “IZ (mm)” value (E. faecalis (ATCC 29122) [6]) of the same compound?
**A.** Its value is 9.00 ± 1.41 mm.

**Q.** And the “IZ (mm)” value [7]?
**A.** Its value is 2.5 ± 0.7 mm.

**Q.** And the “IZ (mm)” value [8]?
**A.** Its value is 5.5 ± 0.7 mm.

**Q.** And the “IZ (mm)” value (S. aureus (ATCC 25923) [9])?
**A.** Its value is 8.00 ± 1.41 mm.

**Q.** And the “IZ (mm)” value (S. enteric (ATCC 43972) [10])?
**A.** Its value is 4.5 ± 0.7 mm.

**Q.** What about the “IZ (mm)” value [11] of the same compound?
**A.** The value was 9.50 ± 0.71 mm.

**Q.** And the IC50 (B. cereus (ATCC 14579) [12])?
**A.** The IC50 was 71.8 ± 2.04 µM.

**Q.** And the IC50 (B. subtilis (ATCC 6633) [13])?
**A.** The IC50 was 64.4 ± 3.37 µM.

**Q.** And the IC50 (E. coli (ATCC 25966) [14])?
**A.** The IC50 was 138 ± 6.68 µM.

**Q.** And the IC50 (E. faecalis (ATCC 29122) [15])?
**A.** The IC50 was 49.6 ± 1.81 µM.

**Q.** And the IC50 [16]?
**A.** Its IC50 is 131 ± 3.5 µM.

**Q.** And the IC50 [17]?
**A.** Its IC50 is 37.6 ± 0.5 µM.

**Q.** And the IC50 (S. aureus (ATCC 25923) [18])?
**A.** Its IC50 is 41.2 ± 2.48 µM.

**Q.** And the IC50 (S. enteric (ATCC 43972) [19])?
**A.** Its IC50 is 120 ± 1.91 µM.

**Q.** And the IC50 [20]?
**A.** Its IC50 is 42.3 ± 1.33 µM.

**Q.** And the viability at 100 µg/mL (HCT-116 cells; 100 µg/mL, read-out: percent of viable cells)?
**A.** The viability at 100 µg/mL was 46%.

**Q.** And the IC50 (HCT-116 cells; read-out: Mean IC50 (µM) of cytotoxicity)?
**A.** Its IC50 is 165 ± 14.4 µM.

**Q.** What about the IC50 (HCT-116 cells; read-out: Mean IC50 (µg/mL) of cytotoxicity) of the same compound?
**A.** The IC50 was 52 ± 4.54 µg/mL.

**Q.** And the melting point?
**A.** The melting point was 216 to 218 °C.

Source: paper PMC9317316, “Synthesis and Evaluation of Some New 4H-Pyran Derivatives as Antioxidant, Antibacterial and Anti-HCT-116 Cells of CRC, with Molecular Docking, Antiproliferative, Apoptotic and ADME Investigations” (Pharmaceuticals, 2022)
